From patent US12404332B2, “Methods for diagnosing and treating cancers” (Research Development Foundation, priority 2020, dated 2025)

Assays:
PD-L1 in ID8agg cells = assay: PD-L1 mRNA (RT-qPCR) in ID8agg cells; type: cell-based, mouse
Description: (§1) FIGS. 39A-C: CAMB reduces PD-L1 through ubiquitination. FIG. 39A, RT-qPCR for PD-L1 mRNA in OVCAR5 and ID8agg cells treated with (+) or without (−) chlorambucil for 48 hours. (n=4). FIG. 39B, Western blot for PD-L1 protein in OVCAR5 cells with (+) or without (−) MG132 for 6 or 20 hours. (upper panel). PD-L1 expression in OVCAR5 cells treated with chlorambucil 48 hours and/or MG132 for 6 hours (lower panel). FIG. 39C, Ubiquitinated PD-L1 was immunoprecipitated (IP) and subjected to Western blot analysis with anti-ubiquitin (Ub) antibody. Cells were treated with chlorambucil for indicated times prior to ubiquitination analysis.
Quantitative Real-Time Reverse Transcriptase Polymerase Chain Reaction: Total RNA was isolated from homogenized whole lung tissue with Trizol reagent (Invitrogen) according to manufacturer instructions. Subsequently, cDNA was synthesized with 1-2 μg of total RNA using the, SuperScript III reverse transcriptase (Invitrogen). Quantitative PCR (qPCR) was conducted using the Bio-Rad Real-Time PCR System (Applied Biosystems), amplified with transcript-specific primers with SYBR Green (Thermo Scientific), according to manufacturer instructions. Mouse primers were: Tyr, 5′-[…]-3′ (SEQ ID NO: 1) and 5′-[…]-3′ (SEQ ID NO: 2); gp100, 5′-[…]-3′ (SEQ ID NO: 3) and 5′-ID NO: 4); Trp-2, 5′-[…]-3′ (SEQ […]-3′ (SEQ ID NO: 5) and 5′-[…] […]

ID8agg cells = assay: Tumor-initiating cell (TIC) flow cytometry, ID8agg cells; type: cell-based, mouse
B16 tumors = assay: B16 tumor challenge in mice treated with chlorambucil; type: in vivo, mouse
Description: Mice and in vivo treatments: Wild-type (WT) C57BL/6 mice NSG were purchased from Jackson Labs (Bar Harbor, ME), bred in our animal facility and used at 7-20 weeks old. All mice were given ad libitum water and food and housed under specific pathogen-free conditions. Mice used here were matched for sex and age in each experiment. 1×10^5 control or PD-L1^KOB16 cells were given subcutaneously (SQ, both sexes). 4×10^6 control or PD-L1^lo ID8agg cells in log growth phase were given intraperitoneally (females only). B16 tumor growth was measured with Vernier calipers and volume was calculated as (length×width^2)/2. Intraperitoneal ID8agg tumor growth was determined by IVIS Lumina Imaging System (Perkin Elmer; Waltham, MA) 15 minutes after i.p. injection of 3 mg of PBS-dissolved d-luciferin K+ (Gold Biotechnology; St. Louis, MO) with 30 second exposures, medium binning, and F/stop=1. Identical regions of interest were drawn over each subject's abdomen and average radiance (photons/see/cm2/sr) was quantified with Living Image software version 4.2. Body weight was measured every week for PD-L1^lo ID8agg mice as a surrogate for tumor growth, and tumors were weighed at end-experiment in confirmation. Survival was determined as >1500 mm^3 for SQ tumors and distress or >20% mouse weight gain for PD-L1^lo ID8agg tumors. […]

PD-L1 in OVCAR5 cells = assay: PD-L1 mRNA, protein and ubiquitination in OVCAR5 cells; type: cell-based, human
Description: as §1
Western blotting and immunoprecipitation: To prepare whole cell lysates, cells were harvested and lysed in RIPA (radioimmunoprecipitation assay) buffer plus 1 mM phenylmethylsulphonyl fluoride and Halt protease/phosphatase inhibitor cocktail (Thermo Scientific) at 4° C. Protein concentrations were measured by BCA Protein Assay Kit (Thermo Scientific). Protein was run on precast 4-15% sodium dodecyl sulfate polyacrylamide gels (Bio-Rad), transferred to polyvinylidene fluoride membranes (GE Water and Process Technologies), and then blocked in 5% non-fat milk for 1 hour at room temperature. The membranes were then incubated with 1:1000 diluted primary antibodies against indicated proteins (Cell Signaling). Specific antibody binding was detected by chemiluminescence using Western Lightening Plus regent (Perkin Elmer). Cells for (co) immunoprecipitation experiments were seeded in 15-cm dishes and cultured as described, using 6 million cells per immunoprecipitation reaction. For protein ubiquitination, cells were lysed in denaturing buffer (50 mM Tris-HCl, 0.5 mM EDTA and 1% SDS) followed by heating at 95° C. for 10 minutes and then quenched with 9 volumes of quenching buffer (0.5% Triton X-100, 20 mM Tris-HCl (pH 8.0), 137 mM NaCl, 10% glycerol, 2 mM EDTA). Protease inhibitor cocktail (Roche) was added fresh to all buffers. Cell lysates were incubated on a rotator for 30 minutes at 4° C., and then centrifuged at 20,000 g for 15 minutes at 4° C. Supernatants were subsequently incubated with anti-PD-L1 antibody overnight and processed using Dynabeads Protein G for Immunoprecipitation (Thermo Fisher Scientific). The final eluate was processed and Western blotting was performed.
Quantitative Real-Time Reverse Transcriptase Polymerase Chain Reaction: Total RNA was isolated from homogenized whole lung tissue with Trizol reagent (Invitrogen) according to manufacturer instructions. […] Quantitative PCR (qPCR) was conducted using the Bio-Rad Real-Time PCR System (Applied Biosystems), amplified with transcript-specific primers with SYBR Green (Thermo Scientific), according to manufacturer instructions. […]

O=C(O)CCCc1ccc(N(CCCl)CCCl)cc1 [chlorambucil]
PD-L1 mRNA (PD-L1 in ID8agg cells): significantly reduced
CD44^+CD133^+CD24^+ TIC population (ID8agg cells): significantly reduced
treatment efficacy in PD-L1^KO B16 challenge (B16 tumors; WT mice): significantly reduced
treatment of tumors (B16 tumors; severely immunodeficient NSG mice, B16): effectively treated both
amount of ubiquitinated PD-L1 (PD-L1 in OVCAR5 cells; Co-IP): increased
PD-L1 mRNA (PD-L1 in OVCAR5 cells; OVCAR5 cells): little changed
